Measured values: patent publication US20240148747A1, “SMALL MOLECULE ACTIVATORS OF YAP TRANSCRIPTIONAL ACTIVITY FOR REGENERATIVE ORGAN REPAIR” (THE SCRIPPS RESEARCH INSTITUTE, priority 2021, published 2024)
Where two headings read alike, the source gives them in different places.

Columns and labels:
[1] = system: YAP; assay: TEAD-LUC activation assay (293A-TEAD-LUC reporter); assay type: cell-based; conditions: Homo sapiens, read-out: TEAD-LUC activation assay EC50
Text: More specifically, we used a 293A cell line harboring a stably integrated cassette containing 8 copies of the TEAD binding element upstream of luciferase (8xGTII-LUC). These cells retain responsiveness to contact inhibition-induced decreases in YAP transcriptional output.^6 The TEAD-responsive reporter assay (called 293A-TEAD-LUC throughout) was adapted to 1536-well format and then used to screen a library of ˜738k compounds for YAP-inducing activity.
Additional compounds of the present disclosure were subjected to the assay described above.

[2] = Cytotoxicity in the TEAD-LUC activation assay; conditions: human

| Compound | EC50 ([1]; Table 4) [µM] | IC50 [2] [µM] | EC50 ([1]; Table 3) [µM] |
| --- | --- | --- | --- |
| CCc1cccc(NC(=O)C2CCN(C(=O)c3cc(-c4ccncc4)[nH]n3)CC2)c1 [Compound 155] | 5 | > 20 |  |
| O=C(NCCCc1nccs1)c1cn2ccccc2n1 [Compound 35] |  | > 20 | > 20 |
| O=C(NCCCc1nccs1)c1cc(C(F)(F)F)ccn1 [Compound 91] |  | > 20 | 15 |
| O=C(NC12CC(F)(C1)C2)c1cc(-c2ccccc2)on1 [Compound 57] |  | > 20 | > 20 |
| COc1cccc(CCNC(=O)c2cc(-c3ccccc3)on2)c1 [Compound 53] |  | > 20 | > 20 |
| O=C(c1cc(-c2ccccc2)on1)N1CCCN(c2cccnn2)CC1 [Compound 140] | > 20 | > 20 |  |
| O=C(NCCCn1cccc1)c1cc(-c2cccc(Cl)c2)on1 [Compound 1] |  | > 20 | > 20 |
| O=C(NCCN1CCOCC1)c1cc(-c2ccc(F)cc2)on1 [Compound 136] | 5.52 | > 20 |  |
| O=C(NCCCn1cccc1)c1n[nH]c2ccccc12 [Compound 101] |  | > 20 | > 20 |
| O=C(NCCCc1nccs1)c1noc(-c2ccccc2)c1-c1ccccc1 [Compound 33] |  | > 24 | > 20 |
| CN(CCCNC(=O)c1cc(-c2ccccc2)on1)S(C)(=O)=O [Compound 24] |  | > 20 | 2.76 |
| O=C(NCCc1ccc(Cl)c(F)c1)c1cc(-c2ccccc2)on1 [Compound 47] |  | 15 | > 20 |
| Cc1ccc(-c2cc(C(=O)NCCC(=O)NC(C)C)no2)cc1C [Compound 116] | > 20 | 1 |  |
| O=C(NCCCn1ccnn1)c1cc(-c2ccc(F)cc2F)on1 [Compound 75] |  | > 20 | 10 |
| O=C(NCCc1cccc(C(F)(F)F)c1)c1cc(-c2ccccc2)on1 [Compound 69] |  | > 20 | > 20 |
| CN(CCC#N)C(=O)c1cc(-c2ccccc2)on1 [Compound 52] |  | > 20 | > 20 |
| O=C(NCCc1ccc(Cl)c(Cl)c1)c1cc(-c2ccccc2)on1 [Compound 65] |  | > 20 | > 20 |
| CCCN1C(=O)CCc2cc(NC(=O)c3ccn(CC)n3)ccc21 [Compound 149] | 3 | > 20 |  |
| O=C(c1cc(-c2ccccc2)on1)N1CCC(c2nc3ccccc3s2)CC1 [Compound 138] | > 20 | > 20 |  |
| O=C(c1cc(-c2ccccc2)on1)N1CCC(Nc2ncccn2)CC1 [Compound 137] | > 20 | > 20 |  |
| O=C(NCCCn1ccnn1)c1cc(-c2cc(F)cc(F)c2)on1 [Compound 80] |  | > 20 | > 20 |
| O=C(NCCCn1ccnn1)c1cc(-c2cncnc2)on1 [Compound 82] |  | > 20 | > 20 |
| O=C(c1cc(-c2ccccc2)on1)N1CCC(n2cccc2)CC1 [Compound 115] | > 20 | > 20 |  |
| O=C(NCCCn1nccn1)c1cc(-c2ccccc2)on1 [Compound 7] |  | > 20 | 1.13 |
| O=C(NCCCn1cccn1)c1cc(-c2ccccc2)on1 [Compound 111] | 1.6 | > 20 |  |
| CC(C)(NC(=O)c1cc(-c2ccccc2)on1)C(F)(F)F [Compound 44] |  | > 20 | > 20 |

| Compound | EC50 ([1]; Table 4) [µM] | IC50 [2] [µM] | EC50 ([1]; Table 3) [µM] |
| --- | --- | --- | --- |
| CCN1C(=O)CCc2cc(NC(=O)c3cccc(Br)c3)ccc21 [Compound 152] | 10 | > 20 |  |
| CN1CCN(CCNC(=O)c2cc(-c3ccccc3)on2)CC1 [Compound 128] | 6.04 | > 20 |  |
| COc1ccc2cc(NC(=O)c3n[nH]c4c3CCCCC4)cnc2c1 [Compound 157] | 10 | > 20 |  |
| O=C(NCCCNc1ccccc1F)c1cc(-c2ccccc2)on1 [Compound 85] |  | > 20 | > 20 |
| CC(=O)c1ccc(NC(=O)c2cc(-c3ccncc3)[nH]n2)cc1 [Compound 153] | > 20 | > 20 |  |
| O=C(NCCCc1nccs1)c1cc(-c2c(F)cccc2F)on1 [Compound 94] |  | > 20 | 1 |
| O=C(NCCCn1cccc1)c1cc(-c2cccc(F)c2)on1 [Compound 9] |  | > 20 | > 20 |
| O=C(NCCCc1nccs1)c1cncc(C(F)(F)F)c1 [Compound 92] |  | > 20 | > 20 |
| O=C(NCCCN1CCCCCC1=O)c1cc(-c2ccccc2)on1 [Compound 141] | 3.97 | > 20 |  |
| O=C(NCCCN1CCCC1)c1cc(-c2ccccc2)on1 [Compound 5] |  | > 20 | > 20 |
| CN1CCN(CCCNC(=O)c2cc(-c3ccccc3)on2)CC1 [Compound 127, N-[3-(4-methylpiperazin-1-yl)propyl]-5-phenyl-1,2-oxazole-3-carboxamide] | 2.68 | > 20 |  |
| Cn1nc(C(=O)NCCCn2cccc2)cc1-c1ccccc1 [Compound 11] |  | > 20 | > 20 |
| O=C(NCCCn1ccnn1)c1cc(-c2ccc(F)cc2)on1 [Compound 70] |  | > 20 | 5 |
| O=C(NCCc1c[nH]c2ccccc12)c1cc(-c2ccccc2)on1 [Compound 49] |  | > 20 | > 20 |
| CC(C)(CNC(=O)c1cc(-c2ccccc2)on1)C(F)(F)F [Compound 43] |  | > 20 | > 20 |
| CC(=O)Nc1cccc(NC(=O)c2cc(-c3ccccc3)on2)c1 [Compound 123] | > 20 | > 20 |  |
| O=C(NCCCc1nccs1)c1cc(-c2ccc(-c3ccccc3)cc2)on1 [Compound 40] |  | > 20 | > 20 |
| O=C(NCCCn1ccc(-c2ccccc2)c1)c1cc(-c2ccccc2)on1 [Compound 26] |  | > 20 | > 20 |
| Cc1nc(CCCNC(=O)c2cc(-c3ccccc3)on2)sc1C [Compound 142] | 4.71 | > 20 |  |
| O=C(NCCCc1ncno1)c1cc(-c2ccccc2)on1 [Compound 28] |  | > 20 | 1.67 |
| CCN1C(=O)NC(=O)C12CCN(C(=O)c1cc(-c3ccccc3)on1)CC2 [Compound 125] | > 20 | > 20 |  |
| COc1ccc(-c2cc(C(=O)NCCCn3ccnn3)no2)cc1 [Compound 73] |  | > 20 | > 20 |
| C[C@H](NC(=O)c1cc(-c2ccccc2)on1)c1ccccc1 [Compound 50] |  | > 20 | > 20 |
| N#Cc1cccc(NC(=O)c2cc(-c3ccncc3)[nH]n2)c1 [Compound 154] | 2 | > 20 |  |
| CC(C)(CO)NC(=O)c1cc(-c2ccccc2)on1 [Compound 107] | > 20 | > 20 |  |
| CN(CCO)C(=O)c1cc(-c2ccccc2)on1 [Compound 66] |  | > 20 | > 20 |

| Compound | EC50 ([1]; Table 4) [µM] | IC50 [2] [µM] | EC50 ([1]; Table 3) [µM] |
| --- | --- | --- | --- |
| O=C(NCCCn1ccc2ccccc21)c1cc(-c2ccccc2)on1 [Compound 4] |  | > 20 | 1.41 |
| CCN1CCN(C(CNC(=O)c2cc(-c3ccccc3)on2)c2ccc(OC)cc2)CC1 (stereo not shown) [Compound 118] | > 20 | > 20 |  |
| Cc1cccc(C)c1NC(=O)c1n[nH]c(=O)c2ccccc12 [Compound 150] | 10 | > 20 |  |
| O=C(NCCCn1cccc1)c1cc(-c2ccccc2)[nH]n1 [Compound 10] |  | > 20 | > 20 |
| O=C(NC1CCCc2ccccc21)c1cc(-c2ccccc2)n[nH]1 (stereo not shown) [Compound 151] | 10 | > 20 |  |
| O=C(NCCCc1nccs1)c1noc2ccccc12 [Compound 34] |  | > 20 | > 20 |
| CC(C)(C)OC(=O)NCCNC(=O)c1cc(-c2ccccc2)on1 [Compound 59] |  | > 20 | 3.58 |
| CC(F)(F)C(C)(C)NC(=O)c1cc(-c2ccccc2)on1 [Compound 46] |  | > 20 | > 20 |
| CCN1C(=O)CCc2cc(NC(=O)c3n[nH]c4ccccc34)ccc21 [Compound 145] | 2 | > 20 |  |
| Cc1ccn(CCCNC(=O)c2cc(-c3ccccc3)on2)c1 [Compound 19] |  | > 20 | 5.16 |
| O=C(NCCCn1ccnn1)c1cc(-c2ccc(F)c(F)c2)on1 [Compound 79] |  | > 20 | > 20 |
| Cc1cncc(C(=O)NCCCc2nccs2)c1 [Compound 96] |  | > 20 | > 20 |
| O=C(NCCc1ccc(F)c(Cl)c1)c1cc(-c2ccccc2)on1 [Compound 68] |  | > 20 | > 20 |
| Cc1c(C(=O)NCCCn2cccc2)noc1-c1ccccc1 [Compound 18] |  | > 20 | > 20 |
| CN(CC(F)F)C(=O)c1cc(-c2ccccc2)on1 [Compound 60] |  | 12 | > 20 |
| O=C(NCCCc1nccs1)c1ncc(-c2ccccc2)o1 [Compound 102] |  | > 20 | > 20 |
| Cc1ccc(-c2cc(C(=O)NCCCn3ccnn3)no2)cc1 [Compound 72] |  | > 20 | > 20 |
| CCN(CC)CCCNC(=O)c1cc(-c2ccc(Cl)cc2)on1 [Compound 117] | > 20 | > 20 |  |
| O=C(NCCCn1cccc1)c1cc(-c2ccccc2F)on1 [Compound 16] |  | > 20 | 1.27 |
| COc1ccccc1-c1cc(C(=O)N2CCCC2c2cc(C)no2)no1 (stereo not shown) [Compound 109] | > 20 | > 20 |  |
| NS(=O)(=O)c1ccc(-c2cc(C(=O)NCCCc3nccs3)no2)cc1 [Compound 42] |  | > 20 | > 20 |
| O=C(NCCCn1ccnn1)c1n[nH]c2ccccc12 [Compound 97] |  | > 20 | > 20 |
| O=C(NCCCNc1ccccc1)c1cc(-c2ccccc2)on1 [Compound 6] |  | > 20 | 0.91 |
| O=C(NCCCn1cccc1)c1noc2c1OCc1ccccc1-2 [Compound 31] |  | > 20 | > 20 |
| O=C(NCCCc1nccs1)c1cc(-c2c(F)cc(F)cc2F)on1 [Compound 86] |  | > 20 | > 20 |
